Patent US9339543B2, “Pharmaceutical compositions that inhibit disproportionation” (Merck Sharp & Dohme Corp., priority 2011, dated 2016)

How the values were obtained:
[1] = XRPD of stressed pioglitazone HCl binary/acidified compacts (free base formation); type: physicochemical; details: for Inhibition of disproportionation via acidification (Table 6 and FIGS. 2 and 3): organic acid in a 1:1 weight ratio with the carboxylate excipient, NIR and XRPD; for Inhibition of disproportionation by organic acid (XRPD, FIG. 2): pioglitazone HCl compacts containing MgSt with organic acids, 40° C./75% RH open dish
Experimental: (§1) An understanding of pioglitazone HCl salt disproportionation was obtained by studying each excipient individually. All of the API and excipient powders were gravimetrically dispensed into 1-dram glass vials using the Symyx Powdernium powder dispensing robot. Binary mixtures containing 250 mg of pioglitazone HCl salt and approximately 30 mg of the excipients were dispensed to create a 9:1 weight ratio mixture. Pharmaceutically relevant formulation matrix samples, or pseudo formulations, were also prepared. The compact target weight was 280 mg with a final composition of 45% of pioglitazone HCl salt, 25% avicel, 25% mannitol and 5% of the remaining excipients.
(§2) Upon completion of the powder dispensing, the vials were removed from the robot and mixed using a Resodyn Acoustic Mixer (LabRAM). The powders were mixed for 30 seconds at 30% intensity to produce homogeneous mixtures. The powders were then poured from the DRAM vial into a ½ inch die. A single compact from each DRAM vial was manually compressed using a compression force of 2000-3000 lbs and a dwell time of 5 seconds. Compacts were stressed at 40° C./35% RH and 40° C./75% RH. The sample preparation and reference for each compact can be seen in Table 2.
XRPD spectroscopy was also used to quantify the level of disproportionation in selected stressed samples of pioglitazone HCl. XRPD Spectroscopy is more sensitive to free base than NIR, making it suitable for samples with little or no disproportionation. The XRPD spectra were collected on the Panalytical X'pert Pro diffractometer with Cu Ka1 radition of 1.5406 Å in the transmission mode. The samples were scanned between a two theta range of 4 and 20° at a step size of 0.0167° for one hour at ambient conditions. The tube power used was 45 kV and 40 mA. In the XRPD pattern, the pioglitazone crystalline free base form has four specific peaks at 7.8weak, 9.1strong, 10.3strong and 15.1moderate 2-theta. The pioglitazone HCl form has a doublet peak centered at 8.6 2-theta.

[2] = cited from earlier work
[3] = aqueous; cited from earlier work
[4] = FT-NIR monitoring of loss of HCl salt in stressed pioglitazone HCl binary/acidified compacts; type: physicochemical; details: MgSt and organic acid compacts, 40° C./75% RH open dish
Experimental: as §1, §2
FT-NIR reflectance spectroscopy was used to monitor the loss of HCl salt throughout the binary and pseudo formulation studies. […]

Row | Molecule | Inhibition of disproportionation via acidification (Table 6 and FIGS. 2 and 3) [1] | Inhibition of disproportionation by organic acid (XRPD, FIG. 2) [1] | pKa Values (first value) [2] | pKa Values (second value) [2] | pKa Values (third value) ([2]; third pKa printed in cell) | Aq. Sol. [3] [g/mL] | Inhibition of disproportionation by organic acid (NIR, Table 6) [4]
1 | Citric Acid | not effective in inhibiting disproportionation | do not effectively inhibit disproportionation | 3.2 | 4.8 | 6.4 |  | 
2 | O=C(O)/C=C\C(=O)O [Maleic Acid] | completely inhibited | successfully inhibit disproportionation |  | 6.3 |  | 0.78 | could inhibit disproportionation
3 | O=C(O)C(O)C(O)C(=O)O (stereo not shown) [Tartaric Acid] | completely inhibited | successfully inhibit disproportionation | 3.0 | 4.2 |  | 1.3 | could inhibit disproportionation
4 | O=C(O)C(=O)O [Oxalic Acid] | not effective in inhibiting disproportionation | do not effectively inhibit disproportionation | 1.25 | 4.14 |  | 0.14 | 
5 | O=C(O)/C=C/C(=O)O [Fumaric Acid] | not effective in inhibiting disproportionation | do not effectively inhibit disproportionation | 3.0 |  |  | 0.0063 | 
